Measured values published in US8318953B2, “Reactive coumarin derivatives and their use in cellular analyses” (AAT Bioquest, Inc., priority 2010, dated 2012).

What was measured:
intracellular esterases = assay: Relative stability and cleavage by intracellular esterases
Text: Chemically reactive enzyme substrate compounds will covalently attach to a corresponding functional group of cell components, forming the complexes of enzyme substrates-cell components or enzyme products-cell components. Using enzyme substrate compounds to label reactive sites on the surface of cells, in cell membranes or in intracellular compartments such as organelles, or in the cell's cytoplasm, permits the determination of their presence or quantity, accessibility, or their spatial and temporal distribution in the sample. […] Photoreactive enzyme substrates can be used similarly to photolabel components of the outer membrane of biological cells or as photo-fixable polar tracers for cells.

Jurkat cells = assay: Flow cytometric monitoring of cell proliferation after dye loading; assay type: cell-based; details: Jurkat cells loaded with 5 μM dye loading solution at 37° C. for 1 hour; flow cytometric analysis
Description: Compound ES 9 is dissolved in anhydrous DMSO to make 5 mM stock solution, and diluted in PBS buffer to make 5 μM dye loading solution. Jurkat cells are loaded with the dye loading solution of Compound ES9 at 37° C. for 1 hour. The cells are washed with PBS buffer to remove serum. The resulted cells are cultured and passed for flow cytometric analysis as desired. Compound ES9 is used to monitor cell proliferation of nine passages.
ES compounds are retained by cells and shared by the daughter cells at each division, resulting in multimodal flow cytometric ES staining histograms, with each cell generation clustering around half the fluorescence intensity of the previous one. ES compounds are dissolved in anhydrous DMSO, and the stock solutions are used promptly. To prepare the cell working solutions (from 1 to 100 μM) the DMSO stock solutions of ES compounds are diluted with Hanks and 20 mM Hepes buffer (HHBS, pH 7 with 0.02% PF-127). The Jurkat cells are treated with test compounds for a desired period of time, and centrifuged give 1-5×10^5 cells per tube. The cells are resuspended in 500 μL of the ES compound working solutions, and incubated at room temperature or 37° C. for 5 to 10 min. […] The fluorescence of ES compound staining are monitored at Ex/Em=405/450 nm, 405/500 nm or 405/550 nm with a fluorescence microscope or a flow cytometer.

CPA cells = assay: Absorption and emission spectra of cell lysates after incubating cells with the substrate; assay type: cell-based; details: CPA cells incubated with compound (5 μM) for 1 h, lysed with 1% Triton X-100; pH=9.0 buffer
Description: CPA cells are incubated with Compound ES1 (5 μM) for 1 h, and lysed with 1% Triton® X-100. The cell lysates from the enzymatic hydrolysis of Compound ES1 have a maximum absorption around 409 nm, which matches very well the 405 nm violet laser excitation of a typical flow cytometer.
CPA cells are incubated with Compound ES7 (5 μM) for 1 h, and lysed with 1% Triton® X-100. The cell lysates from the enzymatic hydrolysis of ES7 have a maximum absorption around 416 nm, which matches very well the 405 nm violet laser excitation of a typical flow cytometer.

SMILES	stability relative to Compound ES 18 (intracellular esterases)	other results
CC(=O)Oc1cc2oc(=O)c(-c3ccc(CCCCCC(=O)ON4C(=O)CCC4=O)s3)cc2cc1Cl [Compound 9]	more stable than Compound ES 18	–
CC(=O)Oc1c(F)cc2cc(C(=O)ON3C(=O)CCC3=O)c(=O)oc2c1F [ES18]	–	cleavage by intracellular esterases (intracellular esterases): cleaved by intracellular esterases more slowly
CC(=O)Oc1cc2oc(=O)c(-c3ccc(CCCCCC(=O)ON4C(=O)CCC4=O)s3)cc2cc1Cl [ES9]	–	passages over which cell proliferation is monitored (Jurkat cells): nine
CC(=O)Oc1cc2oc(=O)c(-c3ccc(CCCCCC(=O)NCCN4C(=O)C=CC4=O)s3)cc2cc1Cl [Compound 10]	more stable than Compound ES 18	–
CC(=O)Oc1c(Cl)cc2cc(C(=O)NCCCCCN3C(=O)C=CC3=O)c(=O)oc2c1F [ES7]	–	maximum absorption of cell lysates from the enzymatic hydrolysis (CPA cells): around 416 nm
CC(=O)OCOc1c(Cl)cc2cc(C(=O)ON3C(=O)CCC3=O)c(=O)oc2c1Cl [Compound 5]	more stable than Compound ES 18	–
CC(=O)Oc1cc2oc(=O)c(C(=O)ON3C(=O)CCC3=O)cc2cc1Cl [ES1]	more stable than Compound ES 18	maximum absorption of cell lysates from the enzymatic hydrolysis (CPA cells): around 409 nm
